Measured values reported in patent US4933347A, “Diamidines and bis(imidazolines) for the treatment of and prophylaxis against pneumocystis carinii pneumonia” (University of North Carolina at Chapel Hill, priority 1988, dated 1990).

Experiments:
[1] = test system: Pneumocystis carinii; assay: Treatment of Pneumocystis carinii pneumonia in Sprague-Dawley rats (extent of disease by histologic score); assay type: in vivo, male Sprague-Dawley rats; conditions: for Extent of Disease by Histologic Score: number of animals with score 0.5 / Extent of Disease by Histologic Score: number of animals with score 1 / Extent of Disease by Histologic Score: number of animals with score 2 / Extent of Disease by Histologic Score: number of animals with score 3 / Extent of Disease by Histologic Score: number of animals with score 4: 14 days; for Extent of Disease by Histologic Score: number of animals with score 0.5 / Extent of disease by histologic score (combined): number of animals in scoring group 0.5: 0.5 = <10 cysts found per 2 sections; for Extent of Disease by Histologic Score: number of animals with score 1 / Extent of disease by histologic score (combined): number of animals in scoring group 1: 1 = scattered cysts, <5% of lung involved; for Extent of Disease by Histologic Score: number of animals with score 2 / Extent of disease by histologic score (combined): number of animals in scoring group 2: 2 = scattered cysts; for Extent of Disease by Histologic Score: number of animals with score 2: 5-10% lung involved or small foci of infection; for Extent of Disease by Histologic Score: number of animals with score 3 / Extent of disease by histologic score (combined): number of animals in scoring group 3: 3 = scattered cysts; for Extent of Disease by Histologic Score: number of animals with score 3: 10-50% of lung involved with some intense areas of infection; for Extent of Disease by Histologic Score: number of animals with score 4: 4 = >50% of lung involved with many intense areas of focal infection; for Extent of disease by histologic score (combined): number of animals in scoring group 0.5 / Extent of disease by histologic score (combined): number of animals in scoring group 1 / Extent of disease by histologic score (combined): number of animals in scoring group 2 / Extent of disease by histologic score (combined): number of animals in scoring group 3 / Extent of disease by histologic score (combined): number of animals in scoring group 4: Table XII composite; for Extent of disease by histologic score (combined): number of animals in scoring group 2: 5-10% of lung involved; for Extent of disease by histologic score (combined): number of animals in scoring group 3: 10-50% of lung involved; for Extent of disease by histologic score (combined): number of animals in scoring group 4: 4 = >50% of lung involved
[2] = Toxicity of amidines in rats (standard laboratory procedure); assay type: in vivo
Procedure: Compounds having the structure represented by Formula I were synthesized in accordance with the appropriate procedures discussed previously. The reaction schemes shown in Charts I-III specifically identify the methodology used to synthesize the compounds of the respective examples. The compounds which were synthesized are shown in Table IA and the elemental analysis and melting points of the compounds are shown in Table IB. Most of the compounds were tested for toxicity in rats using standard laboratory procedure and the results of that toxicity testing are shown in Table XII. The compounds of Examples 31, 32, and 34 were not synthesized but may be synthesized in the general manner discussed previously.

[3] = dose as in value, else not given in Table XIII (10 mg/kg test dose)

N=C(N)c1ccc(OCCCCCOc2ccc(C(=N)N)cc2[N+](=O)[O-])c([N+](=O)[O-])c1 [Example 13]
Extent of Disease by Histologic Score: number of animals with score 0.5 ([1]; 5 mg/kg i.v. daily): 3 animals | Extent of Disease by Histologic Score: number of animals with score 1 ([1]; 5 mg/kg i.v. daily): 2 animals | Extent of Disease by Histologic Score: number of animals with score 2 ([1]; 5 mg/kg i.v. daily): 3 animals | Extent of Disease by Histologic Score: number of animals with score 3 ([1]; 5 mg/kg i.v. daily): 0 animals | Extent of Disease by Histologic Score: number of animals with score 4 ([1]; 5 mg/kg i.v. daily): 0 animals | Extent of disease by histologic score (combined): number of animals in scoring group 0.5 ([1]; tested at 5 mg/kg): 0 animals | Extent of disease by histologic score (combined): number of animals in scoring group 1 ([1]; tested at 5 mg/kg): 2 animals | Extent of disease by histologic score (combined): number of animals in scoring group 2 ([1]; tested at 5 mg/kg): 4 animals | Extent of disease by histologic score (combined): number of animals in scoring group 3 ([1]; tested at 5 mg/kg): 2 animals | Extent of disease by histologic score (combined): number of animals in scoring group 4 ([1]; tested at 5 mg/kg): 0 animals | Toxicity of amidines: Effect [2, 3]: Acute toxicity, death at 10 mg/kg

N=C(N)c1ccc(NCCCNc2ccc(C(=N)N)cc2[N+](=O)[O-])c([N+](=O)[O-])c1 [Example 35]
Extent of Disease by Histologic Score: number of animals with score 0.5 ([1]; 5 mg/kg i.v. daily): 0 animals | Extent of Disease by Histologic Score: number of animals with score 1 ([1]; 5 mg/kg i.v. daily): 0 animals | Extent of Disease by Histologic Score: number of animals with score 2 ([1]; 5 mg/kg i.v. daily): 0 animals | Extent of Disease by Histologic Score: number of animals with score 3 ([1]; 5 mg/kg i.v. daily): 2 animals | Extent of Disease by Histologic Score: number of animals with score 4 ([1]; 5 mg/kg i.v. daily): 6 animals | Extent of disease by histologic score (combined): number of animals in scoring group 0.5 ([1]; tested at 5 mg/kg): 0 animals | Extent of disease by histologic score (combined): number of animals in scoring group 1 ([1]; tested at 5 mg/kg): 0 animals | Extent of disease by histologic score (combined): number of animals in scoring group 2 ([1]; tested at 5 mg/kg): 0 animals | Extent of disease by histologic score (combined): number of animals in scoring group 3 ([1]; tested at 5 mg/kg): 2 animals | Extent of disease by histologic score (combined): number of animals in scoring group 4 ([1]; tested at 5 mg/kg): 6 animals | Toxicity of amidines: Effect ([2]; tested at 5 mg/kg): no toxicity

N=C(N)c1ccc(OCCCCCCOc2ccc(C(=N)N)cc2N)c(N)c1 [Example 22]
Extent of Disease by Histologic Score: number of animals with score 0.5 ([1]; 5 mg/kg i.v. daily): 0 animals | Extent of Disease by Histologic Score: number of animals with score 1 ([1]; 5 mg/kg i.v. daily): 1 animals | Extent of Disease by Histologic Score: number of animals with score 2 ([1]; 5 mg/kg i.v. daily): 4 animals | Extent of Disease by Histologic Score: number of animals with score 3 ([1]; 5 mg/kg i.v. daily): 3 animals | Extent of Disease by Histologic Score: number of animals with score 4 ([1]; 5 mg/kg i.v. daily): 0 animals | Extent of disease by histologic score (combined): number of animals in scoring group 0.5 ([1]; tested at 5 mg/kg): 0 animals | Extent of disease by histologic score (combined): number of animals in scoring group 1 ([1]; tested at 5 mg/kg): 1 animals | Extent of disease by histologic score (combined): number of animals in scoring group 2 ([1]; tested at 5 mg/kg): 4 animals | Extent of disease by histologic score (combined): number of animals in scoring group 3 ([1]; tested at 5 mg/kg): 3 animals | Extent of disease by histologic score (combined): number of animals in scoring group 4 ([1]; tested at 5 mg/kg): 0 animals | Efficacy in treating PCP compared with pentamidine ([1]; compound at 5 mg/kg): significantly less effective than the other compounds or pentamidine | Toxicity of amidines: Effect [2, 3]: Acute toxicity - death at 10 mg/kg | Toxicity (words in running text) ([2]; rat, in vivo): toxic

CN1CCN=C1c1ccc(OCCCCCOc2ccc(C3=NCCN3C)cc2)cc1 [Example 42]
Extent of Disease by Histologic Score: number of animals with score 0.5 ([1]; 2.5 mg/kg i.v. daily): 0 animals | Extent of Disease by Histologic Score: number of animals with score 1 ([1]; 2.5 mg/kg i.v. daily): 0 animals | Extent of Disease by Histologic Score: number of animals with score 2 ([1]; 2.5 mg/kg i.v. daily): 2 animals | Extent of Disease by Histologic Score: number of animals with score 3 ([1]; 2.5 mg/kg i.v. daily): 3 animals | Extent of Disease by Histologic Score: number of animals with score 4 ([1]; 2.5 mg/kg i.v. daily): 3 animals | Extent of disease by histologic score (combined): number of animals in scoring group 0.5 ([1]; tested at 2.5 mg/kg): 0 animals | Extent of disease by histologic score (combined): number of animals in scoring group 1 ([1]; tested at 2.5 mg/kg): 0 animals | Extent of disease by histologic score (combined): number of animals in scoring group 2 ([1]; tested at 2.5 mg/kg): 2 animals | Extent of disease by histologic score (combined): number of animals in scoring group 3 ([1]; tested at 2.5 mg/kg): 3 animals | Extent of disease by histologic score (combined): number of animals in scoring group 4 ([1]; tested at 2.5 mg/kg): 3 animals | Toxicity of amidines: Effect [2, 3]: Acute toxicity at 10 mg/kg and 5 mg/kg | Toxicity of amidines: Effect ([2]; rat, in vivo, 2.5 mg/kg): no toxicity

COc1cc(C(=N)N)ccc1OCCCCOc1ccc(C(=N)N)cc1OC [Example 11]
Extent of Disease by Histologic Score: number of animals with score 0.5 ([1]; 5 mg/kg i.v. daily): 3 animals | Extent of Disease by Histologic Score: number of animals with score 1 ([1]; 5 mg/kg i.v. daily): 4 animals | Extent of Disease by Histologic Score: number of animals with score 2 ([1]; 5 mg/kg i.v. daily): 1 animals | Extent of Disease by Histologic Score: number of animals with score 3 ([1]; 5 mg/kg i.v. daily): 0 animals | Extent of Disease by Histologic Score: number of animals with score 4 ([1]; 5 mg/kg i.v. daily): 0 animals | Extent of disease by histologic score (combined): number of animals in scoring group 0.5 ([1]; tested at 5 mg/kg): 3 animals | Extent of disease by histologic score (combined): number of animals in scoring group 1 ([1]; tested at 5 mg/kg): 4 animals | Extent of disease by histologic score (combined): number of animals in scoring group 2 ([1]; tested at 5 mg/kg): 1 animals | Extent of disease by histologic score (combined): number of animals in scoring group 3 ([1]; tested at 5 mg/kg): 0 animals | Extent of disease by histologic score (combined): number of animals in scoring group 4 ([1]; tested at 5 mg/kg): 0 animals | Efficacy in treating PCP compared with control ([1]; compound at 5 mg/kg): significantly better, at one half the dose, than the control | Toxicity of amidines: Effect ([2]; rat, in vivo, 5 mg/kg): None

N=C(N)c1ccc(NCCCCCNc2ccc(C(=N)N)cc2)cc1 [Example 17]
Extent of Disease by Histologic Score: number of animals with score 0.5 ([1]; 10 mg/kg i.v. daily): 1 animals | Extent of Disease by Histologic Score: number of animals with score 1 ([1]; 10 mg/kg i.v. daily): 2 animals | Extent of Disease by Histologic Score: number of animals with score 2 ([1]; 10 mg/kg i.v. daily): 3 animals | Extent of Disease by Histologic Score: number of animals with score 3 ([1]; 10 mg/kg i.v. daily): 1 animals | Extent of Disease by Histologic Score: number of animals with score 4 ([1]; 10 mg/kg i.v. daily): 0 animals | Efficacy in treating PCP compared with pentamidine ([1]; 10 mg/kg unless otherwise noted): better than or equal to pentamidine | Extent of disease by histologic score (combined): number of animals in scoring group 0.5 ([1]; 10 mg/kg): 1 animals | Extent of disease by histologic score (combined): number of animals in scoring group 1 ([1]; 10 mg/kg): 2 animals | Extent of disease by histologic score (combined): number of animals in scoring group 2 ([1]; 10 mg/kg): 3 animals | Extent of disease by histologic score (combined): number of animals in scoring group 3 ([1]; 10 mg/kg): 1 animals | Extent of disease by histologic score (combined): number of animals in scoring group 4 ([1]; 10 mg/kg): 0 animals | Efficacy in treating PCP compared with related compounds of the series ([1]; effect of chain length or substituent): least effective | Deaths by day 13 ([2]; rat, in vivo): 2 deaths

N=C(N)c1ccc(OCCCCOc2ccc(C(=N)N)cc2[N+](=O)[O-])c([N+](=O)[O-])c1 [Example 38]
Extent of Disease by Histologic Score: number of animals with score 0.5 ([1]; 2.5 mg/kg i.v. daily): 0 animals | Extent of Disease by Histologic Score: number of animals with score 1 ([1]; 2.5 mg/kg i.v. daily): 0 animals | Extent of Disease by Histologic Score: number of animals with score 2 ([1]; 2.5 mg/kg i.v. daily): 3 animals | Extent of Disease by Histologic Score: number of animals with score 3 ([1]; 2.5 mg/kg i.v. daily): 1 animals | Extent of Disease by Histologic Score: number of animals with score 4 ([1]; 2.5 mg/kg i.v. daily): 4 animals | Extent of disease by histologic score (combined): number of animals in scoring group 0.5 ([1]; tested at 2.5 mg/kg): 0 animals | Extent of disease by histologic score (combined): number of animals in scoring group 1 ([1]; tested at 2.5 mg/kg): 0 animals | Extent of disease by histologic score (combined): number of animals in scoring group 2 ([1]; tested at 2.5 mg/kg): 3 animals | Extent of disease by histologic score (combined): number of animals in scoring group 3 ([1]; tested at 2.5 mg/kg): 1 animals | Extent of disease by histologic score (combined): number of animals in scoring group 4 ([1]; tested at 2.5 mg/kg): 4 animals | Toxicity of amidines: Effect [2, 3]: Acute toxicity at 10 mg/kg and 5 mg/kg | Toxicity of amidines: Effect ([2]; tested at 2.5 mg/kg): no toxicity
